The results in this text go back to US20100210535A1, “[…] USE OF NE[…] AND ACTH 7-38 AND COMPOSITIONS THEREOF” (priority 2007, published 2010).

Test [1] relates to hepatitis B virus (HBV) ayw strain. Briefly: HBV experimental assay system, HepG2-2.2.15, secreted HBV DNA by TaqMan PCR. It is filed as cell-based. As to conditions: 10 micrograms per ml, HepG2-2.2.15 cells, six days.
In test [2] the test system is Primary Human endothelial cells (HUVEC). The test is described as follows: Endothelial cell migration assay. Format: cell-based. As to conditions: 10 micrograms per ml, 22 hours, combination peptide 1:peptide 2 0.95 mole:1.05 mole. As for the experimental part:
Thereafter, designated concentration of testing peptides—10 micrograms per ml—was added in duplicate wells.

The next test deals with spleen cells. Briefly: Th1/Th2 cytokine profiling assay (Ovalbumin-restimulated spleen cells, CBA kit). Format: cell-based, Balb/c mice. The settings on record: 10 micrograms per ml; Ovalbumin restimulation; 72 hours.
A further test relates to HCMV strain AD169. Briefly: HCMV plaque formation assay in MRC-5 cells. As to conditions: 10 micrograms per ml, 7-10 days. Format: cell-based. The source says:
Ganciclovir was used as positive control.

The subject of a further test is HUVEC. The test is described as follows: Endothelial tube formation assay. It is filed as cell-based, human. As to conditions: 10 micrograms per ml, 20 hours, combination peptide 1:peptide 2 1.10 mole:0.90 mole.

Where no end group is shown, it is not given here.

Description for spleen cells: The Balb/c mice (originated in 1923, it is a popular strain and is used in many different research disciplines. Also classified as an inbred from the production of 20 or more successive brother-sister matings, the Balb/c mouse is albino and small in size) were immunized on Days 1, 15, and 29 with Ovalbumin (Ovalbumin is the main protein found in egg white, commonly used to stimulate an immunological reaction in test animals) in PBS (5 micrograms/injection). On day 50, spleens of the mice were harvested (3 weeks after last boost with Ovalbumin). Cells were cultured (2×10^5/well in triplicate) and incubated with culture medium or test peptides—10 micrograms per ml—for 30 min. Thereafter, additional Ovalbumin was added to the cells at 10 micrograms/ml for in vitro restimulation of the cells. 72 hours later, cell supernatants were harvested and assayed using the Becton Dickinson Mouse Th1/Th2 Cytokine CBA Kit.

Consider “Glu-Ile-Gly-Asp-Glu-Glu-Asn-Ser-Ala-Lys-Phe-Pro-Ile-NH2 (EIGDEENSAKFPI-NH2) [Peptide 1]”, for which the “inhibition of HBV replication as compared to the virus control infection” value in test [1] was “no effect”. The “inhibition of the migration of human endothelial cells” value in test [2] amounted to 53%. Also, in the test on spleen cells, the “IFNγ spleen cells; TH1 response (% of control)” value is on record as 149.4 % of control, the “IL-2 spleen cells (% of control)” value is 212.4 % of control, the “IL-4 spleen cells; TH2 response (% of control)” value is recorded as 163.3 % of control and the “IL-5 spleen cells; TH2 response (% of control)” value is reported as 115.8 % of control. The “TNF-a spleen cells; TH1 response (% of control)” value in the test with spleen cells was 155.5 % of control. Also, the “inhibition of HCMV plaque formation as compared to the virus control experiment” value with HCMV strain AD169 amounted to 5.8%.

Turning to “Phe-Arg-Trp-Gly-Lys-Pro-Val-Gly-Lys-Lys-Arg-Arg-Pro-Val-Lys-Val-Tyr-Pro-Asn-Gly-Ala-Glu-Asp-Glu-Ser-Ala-Glu-Ala-Phe-Pro-Leu-Glu-OH (FRWGKPVGKKRRPVKVYPNGAEDESAEAFPLE-OH) [Peptide 2]”, the “inhibition of HBV replication as compared to the virus control infection” value in test [1] is given as 8.4%. Also, the “inhibition of the migration of human endothelial cells” value in test [2] is 41%. In the test on spleen cells, the “IFNγ spleen cells; TH1 response (% of control)” value is 113.7 % of control, the “IL-2 spleen cells (% of control)” value was 137.1 % of control, the “IL-4 spleen cells; TH2 response (% of control)” value is on record as 0.0 % of control and the “IL-5 spleen cells; TH2 response (% of control)” value is on record as 106.3 % of control. Besides, the “TNF-a spleen cells; TH1 response (% of control)” value in the test with spleen cells is 138.0 % of control. The “inhibition of the tube formation of human endothelial cells” value in the test on HUVEC is “did not inhibit”. In addition, in the test with HCMV strain AD169, the “inhibition of HCMV plaque formation as compared to the virus control experiment” value is given as “does not inhibit”.
